From patent US11220504B2, “Pyrrolo[3,2-d] pyrimidine derivatives for the treatment of viral infections and other diseases” (JANSSEN SCIENCES IRELAND UNLIMITED COMPANY, priority 2012, dated 2022)

Molecular target: T1, human TLR8 (Homo sapiens, UniProt Q9NR97)
T1 construct: expressed in transfected cells; host or cells: HEK293 cells, transient transfection with TLR8 plasmid and NFκB-luc plasmid
T1 sequence (Q9NR97 27-1041): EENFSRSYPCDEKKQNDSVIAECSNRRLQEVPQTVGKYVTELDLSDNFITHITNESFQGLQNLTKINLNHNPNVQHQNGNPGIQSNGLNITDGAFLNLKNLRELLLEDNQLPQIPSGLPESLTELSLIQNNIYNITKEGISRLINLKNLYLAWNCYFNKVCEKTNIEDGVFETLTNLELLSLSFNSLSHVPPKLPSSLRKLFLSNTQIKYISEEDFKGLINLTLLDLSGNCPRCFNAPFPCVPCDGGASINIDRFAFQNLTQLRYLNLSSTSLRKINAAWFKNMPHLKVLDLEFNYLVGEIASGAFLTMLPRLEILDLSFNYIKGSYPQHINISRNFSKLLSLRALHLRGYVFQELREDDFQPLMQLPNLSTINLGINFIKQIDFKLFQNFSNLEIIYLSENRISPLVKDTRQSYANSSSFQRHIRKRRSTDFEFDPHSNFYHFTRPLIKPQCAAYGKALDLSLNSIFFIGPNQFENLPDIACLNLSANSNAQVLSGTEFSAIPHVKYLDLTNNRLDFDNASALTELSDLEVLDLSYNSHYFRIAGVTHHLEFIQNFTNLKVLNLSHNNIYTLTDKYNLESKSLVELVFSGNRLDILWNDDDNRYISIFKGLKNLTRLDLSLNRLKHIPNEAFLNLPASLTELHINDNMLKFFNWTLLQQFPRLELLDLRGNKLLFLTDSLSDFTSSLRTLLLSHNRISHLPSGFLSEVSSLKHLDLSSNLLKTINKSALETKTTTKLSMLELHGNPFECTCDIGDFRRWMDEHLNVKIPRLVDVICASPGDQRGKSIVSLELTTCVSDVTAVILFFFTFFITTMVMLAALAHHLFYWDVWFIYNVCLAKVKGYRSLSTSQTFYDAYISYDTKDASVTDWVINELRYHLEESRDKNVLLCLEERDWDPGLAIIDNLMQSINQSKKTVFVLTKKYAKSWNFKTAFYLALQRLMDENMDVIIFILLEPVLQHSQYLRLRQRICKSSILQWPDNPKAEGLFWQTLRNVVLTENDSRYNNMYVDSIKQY
Assay: TLR8 cellular reporter assay (HEK293, NFκB-luc)
Assay type: cell-based
Details: HEK293 cells transfected with CMV-TLR8 and NFκB-luc, 6 hours incubation; lowest effective concentration
Method: The ability of compounds to activate human TLR7 and/or TLR8 was assessed in a cellular reporter assay using HEK293 cells transiently transfected with a TLR7 or TLR8 expression vector and NFκB-luc reporter construct.
Briefly, HEK293 cells were grown in culture medium (DMEM supplemented with 10% FCS and 2 mM Glutamine). […] Thirty microliters of cells were then dispensed into each well in 384-well plates, where 10 μL of compound in 4% DMSO was already present. Following 6 hours incubation at 37° C., 5% CO2, the luciferase activity was determined by adding 15 μL of Steady Lite Plus substrate (Perkin Elmer) to each well and readout performed on a ViewLux ultraHTS microplate imager (Perkin Elmer). Dose response curves were generated from measurements performed in quadruplicates.

Row | TLR8 LEC [µM] | Structure (SMILES)
1 | >25 | Cc1cc(CNc2nc(N)nc3ccn(Cc4ccccn4)c23)no1 [Compound 89]
2 | >25 | Cc1cc(CNc2nc(N)nc3ccn(Cc4ncccc4F)c23)no1 [Compound 125]
3 | >25 | Nc1nc(NCc2cc(C3CC3)on2)c2c(ccn2Cc2ccccn2)n1 [Compound 126]
4 | >25 | CC(C)c1cc(CNc2nc(N)nc3ccn(Cc4ccccn4)c23)no1 [Compound 127]
5 | >25 | Nc1nc(NCc2nccs2)c2c(ccn2Cc2ccccn2)n1 [Compound 136]
6 | >25 | Nc1nc(NCc2ncco2)c2c(ccn2Cc2ccccn2)n1 [Compound 142]
7 | >25 | Cc1cc(CNc2nc(N)nc3ccn(Cc4ccc(F)cn4)c23)no1 [Compound 144]
8 | >25 | Nc1nc(NCc2ccon2)c2c(ccn2Cc2ccccn2)n1 [Compound 155]
9 | >25 | Cc1cc(CNc2nc(N)nc3ccn(Cc4ncccc4Cl)c23)no1 [Compound 156]
10 | >25 | Cc1cc(CNc2nc(N)nc3ccn(Cc4cc(Cl)ccn4)c23)no1 [Compound 158]
11 | >25 | Cc1nc(CNc2nc(N)nc3ccn(Cc4ccccn4)c23)cs1 [Compound 174]
12 | >25 | Cc1cc(CNc2nc(N)nc3ccn(Cc4ccccn4)c23)on1 [Compound 184]
13 | >25 | Cc1ccc(CNc2nc(N)nc3ccn(Cc4ccccn4)c23)nc1 [Compound 189]
14 | >25 | Cc1cnc(CNc2nc(N)nc3ccn(Cc4ccccn4)c23)o1 [Compound 191]
15 | 23 | Cc1cnc(CNc2nc(N)nc3ccn(Cc4ccccn4)c23)s1 [Compound 207]
16 | >25 | Cc1coc(CNc2nc(N)nc3ccn(Cc4ccccn4)c23)n1 [Compound 214]
17 | >25 | Cc1nnc(CNc2nc(N)nc3ccn(Cc4ccccn4)c23)o1 [Compound 216]

The next lines start with the molecule.

Row | Structure (SMILES) | TLR8 LEC [µM]
18 | C[C@@H](Nc1nc(N)nc2ccn(Cc3ccccn3)c12)c1ccccn1 (single isomer, unassigned) [Compound 194] | >25
19 | C[C@H](Nc1nc(N)nc2ccn(Cc3ccccn3)c12)c1ccccn1 (single isomer, unassigned) [Compound 195] | >25
20 | COCCNc1nc(N)nc2ccn(Cc3ccccn3)c12 [Compound 119] | >25
21 | Cc1cc(CNc2nc(N)nc3ccn(Cc4ccc(C(F)(F)F)cn4)c23)no1 [Compound 122] | >25
22 | COc1ccc(Cn2ccc3nc(N)nc(NCc4cc(C)on4)c32)nc1OC [Compound 124] | >22
23 | COc1cccc(Cn2ccc3nc(N)nc(NCc4cc(C)on4)c32)n1 [Compound 131] | 24.6
24 | COCCCNc1nc(N)nc2ccn(Cc3ccccn3)c12 [Compound 138] | >25
25 | CCOCCNc1nc(N)nc2ccn(Cc3ccccn3)c12 [Compound 140] | >25
26 | CCC(O)CNc1nc(N)nc2ccn(Cc3ccccn3)c12 (centres unmarked) [Compound 141] | >25
27 | Cc1cc(CNc2nc(N)nc3ccn(Cc4cc(C(F)(F)F)ccn4)c23)no1 [Compound 145] | >25
28 | COc1cccnc1Cn1ccc2nc(N)nc(NCc3cc(C)on3)c21 [Compound 170] | >25
29 | CC(Nc1nc(N)nc2ccn(Cc3ccccn3)c12)c1ccccn1 (centres unmarked) [Compound 190] | >25
